# Active and inactive are the calls of the source. The calls are words filed in the database; no cut-off is given here.
# Experiments:
# [1] = tested on: PC-12; assay: Protection against H2O2-induced apoptosis in rat PC-12 cells assessed as early apoptic cells at 5 uM pretreated for 12 hrs followed by H2O2 challenge by annexin V FITC/propidium iodide staining based flow cytometry (reference value: 2.2 %); assay type: functional
# [2] = tested on: PC-12; assay: Protection against H2O2-induced mitochondrial dysfunction in rat PC-12 cells assessed as change in mitochondrial membrane potential at 10 uM pretreated with compound for 12 hrs followed by H2O2 challenge by JC-1 staining based flow cytometry (reference value: 73 %); assay type: functional
# [3] = tested on: PC-12; assay: Protection against 6-OHDA-induced mitochondrial dysfunction in rat PC-12 cells assessed as change in mitochondrial membrane potential at 5 uM pretreated with compound for 12 hrs followed by 6-OHDA challenge by JC-1 staining based flow cytometry (reference value: 56 %); assay type: functional
# [4] = tested on: PC-12; assay: Prevention of H2O2-induced calcium overload in rat PC-12 cells assessed as reduction in intracellular free calcium pretreated with compound for 12 hrs followed by H2O2 challenge by Fluo-3AM based fluorescence assay; assay type: functional, cell-based; conditions: dose 2.5-10 µM
# [5] = tested on: PC-12; assay: Cytoprotective activity against H2O2- induced cell death in rat PC-12 cells assessed as decrease in LDH release pretreated for 12 hrs followed by H2O2 challenge by LDH assay; assay type: functional, cell-based; conditions: dose 2.5-10 µM
# [6] = tested on: PC-12; assay: Protection against 6-OHDA-induced apoptosis in rat PC-12 cells assessed as viable cells at 10 uM pretreated for 12 hrs followed by 6-OHDA challenge by annexin V FITC/propidium iodide staining based flow cytometry (reference value: 76.7 %); assay type: functional; conditions: read-out: Activity
# [7] = tested on: PC-12; assay: Protection against H2O2-induced mitochondrial dysfunction in rat PC-12 cells assessed as change in mitochondrial membrane potential at 5 uM pretreated with compound for 12 hrs followed by H2O2 challenge by JC-1 staining based flow cytometry (reference value: 73 %); assay type: functional
# [8] = tested on: PC-12; assay: Prevention of 6-OHDA-induced calcium overload in rat PC-12 cells assessed as reduction in intracellular free calcium pretreated with compound for 12 hrs followed by 6-OHDA challenge by Fluo-3AM based fluorescence assay; assay type: functional, cell-based; conditions: dose 2.5-10 µM
# [9] = tested on: PC-12; assay: Cytoprotective activity against 6-OHDA-induced oxidative stress in rat PC-12 cells assessed as decrease in cell death at 10 uM pretreated with brusatol for 1 hr followed by compound treatment for 12 hrs and subsequent 6-OHDA challenge by MTT assay; assay type: functional, cell-based
# [10] = tested on: PC-12; assay: Protection against 6-OHDA-induced apoptosis in rat PC-12 cells assessed as cell rescue pretreated for 12 hrs followed by 6-OHDA challenge by Hoechst 33342 staining based confocal microscopic analysis; assay type: functional; conditions: dose 2.5-10 µM
# [11] = tested on: PC-12; assay: Cytoprotective activity against H2O2-induced oxidative stress in rat PC-12 cells assessed as decrease in cell death at 10 uM pretreated for 12 hrs followed by H2O2 challenge by MTT assay; assay type: functional, cell-based
# [12] = tested on: HEK293; assay: Inhibition of amyloid beta(1 to 40) secretion in human HEK293T cells transfected with human APP harboring Swedish double mutant K595N/M596L measured after 24 hrs by ELISA; assay type: functional, cell-based; conditions: dose 2.5-10 µM
# [13] = tested on: PC-12; assay: Protection against H2O2-induced ROS accumulation in rat PC-12 cells assessed as intracellular ROS level by measuring mean fluorescence intensity pretreated for 12 hrs followed by H2O2 challenge by DCFH-DA staining based flow cytometry; assay type: functional, cell-based; conditions: dose 2.5-10 µM
# [14] = tested on: PC-12; assay: Protection against 6-OHDA-induced apoptosis in rat PC-12 cells assessed as early apoptotic cells at 5 uM pretreated for 12 hrs followed by 6-OHDA challenge by annexin V FITC/propidium iodide staining based flow cytometry (reference value: 2.4 %); assay type: functional
# [15] = target: T1, Nuclear factor erythroid 2-related factor 2 (Mus musculus) (UniProt Q60795); assay: Activation of Nrf2 in mouse BV-2 cells assessed as upregulation of GCLM protein expression after 24 hrs by Western blot analysis; assay type: cell-based; conditions: filed as activator, dose 2.5-10 µM
# T1 sequence (whole entry): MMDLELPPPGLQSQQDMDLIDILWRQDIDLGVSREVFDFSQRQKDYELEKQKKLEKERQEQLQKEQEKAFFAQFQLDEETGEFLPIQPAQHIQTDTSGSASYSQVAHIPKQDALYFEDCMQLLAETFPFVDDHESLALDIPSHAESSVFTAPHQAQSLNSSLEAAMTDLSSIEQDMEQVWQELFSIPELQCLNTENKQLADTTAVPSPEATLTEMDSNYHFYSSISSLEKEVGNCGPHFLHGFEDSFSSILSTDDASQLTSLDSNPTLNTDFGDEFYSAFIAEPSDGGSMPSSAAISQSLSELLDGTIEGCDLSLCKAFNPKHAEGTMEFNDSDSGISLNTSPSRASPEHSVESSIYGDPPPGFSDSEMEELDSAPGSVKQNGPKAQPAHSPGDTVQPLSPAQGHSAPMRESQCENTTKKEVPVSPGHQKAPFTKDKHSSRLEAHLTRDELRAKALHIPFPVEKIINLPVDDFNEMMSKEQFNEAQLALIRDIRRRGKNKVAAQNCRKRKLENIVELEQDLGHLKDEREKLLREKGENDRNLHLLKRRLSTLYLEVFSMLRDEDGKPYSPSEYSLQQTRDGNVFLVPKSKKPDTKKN
# [16] = tested on: PC-12; assay: Protection against 6-OHDA-induced mitochondrial dysfunction in rat PC-12 cells assessed as change in mitochondrial membrane potential at 10 uM pretreated with compound for 12 hrs followed by 6-OHDA challenge by JC-1 staining based flow cytometry (reference value: 56 %); assay type: functional
# [17] = tested on: PC-12; assay: Protection against H2O2-induced apoptosis in rat PC-12 cells assessed as viable cells at 10 uM pretreated for 12 hrs followed by H2O2 challenge by annexin V FITC/propidium iodide staining based flow cytometry (reference value: 73.3 %); assay type: functional; conditions: read-out: Activity
# [18] = tested on: PC-12; assay: Cytoprotective activity against 6-OHDA induced cell death in rat PC-12 cells assessed as decrease in LDH release pretreated for 12 hrs followed by 6-OHDA challenge by LDH assay; assay type: functional, cell-based; conditions: dose 2.5-10 µM
# [19] = tested on: PC-12; assay: Activation of Keap1-Nrf2-ARE pathway in rat PC-12 assessed as upregulation of NQO1 protein expression measured after 12 hrs by Western blot analysis; conditions: filed as activator, dose 2.5-10 µM
# [20] = tested on: PC-12; assay: Protection against H2O2-induced apoptosis in rat PC-12 cells assessed as necrotic cells at 5 uM pretreated for 12 hrs followed by H2O2 challenge by annexin V FITC/propidium iodide staining based flow cytometry (reference value: 3.7 %); assay type: functional
# [21] = tested on: PC-12; assay: Protection against 6-OHDA-induced apoptosis in rat PC-12 cells assessed as viable cells at 2.5 uM pretreated for 12 hrs followed by 6-OHDA challenge by annexin V FITC/propidium iodide staining based flow cytometry (reference value: 76.7 %); assay type: functional; conditions: read-out: Activity
# [22] = tested on: PC-12; assay: Protection against H2O2-induced apoptosis in rat PC-12 cells assessed as late apoptic cells at 2.5 uM pretreated for 12 hrs followed by H2O2 challenge by annexin V FITC/propidium iodide staining based flow cytometry (reference value: 20.8 %); assay type: functional
# [23] = tested on: PC-12; assay: Protection against H2O2-induced apoptosis in rat PC-12 cells assessed as early apoptic cells at 2.5 uM pretreated for 12 hrs followed by H2O2 challenge by annexin V FITC/propidium iodide staining based flow cytometry (reference value: 2.2 %); assay type: functional
# [24] = target: T1, Nuclear factor erythroid 2-related factor 2 (Mus musculus); assay: Activation of Nrf2 in mouse BV-2 cells assessed as upregulation of TrxR1 protein expression after 24 hrs by Western blot analysis; assay type: cell-based; conditions: filed as activator, dose 2.5-10 µM
smiles,measurement,setting,value
CN1C(N)=N[C@](C)(c2cc(-n3[se]c4cc(F)ccc4c3=O)ccc2F)CS1(=O)=O,Activity,[1],1.6%
same,Activity,[2],89.1%
same,Activity,[3],64.8%
same,Activity,[4],Dose-Dependent Effect
same,Activity,[5],Dose-Dependent Effect
same,viability at 10 µM,[6],90.5%
same,Activity,[7],85.9%
same,Activity,[8],Dose-Dependent Effect
same,Activity,[9],inactive
same,Activity,[10],Dose-Dependent Effect
same,Activity,[11],Active
same,inhibition,[12],Active
same,Activity,[13],Dose-Dependent Effect
same,Activity,[14],2.5%
same,Activity,[15],Dose-Dependent Effect
same,Activity,[16],78.6%
same,viability at 10 µM,[17],92.6%
same,Activity,[18],Dose-Dependent Effect
same,Activity,[19],Active
same,Activity,[20],1.3%
same,viability at 2.5 µM,[21],79.8%
same,Activity,[22],12.3%
same,Activity,[23],2%
same,Activity,[24],Dose-Dependent Effect

# Source: ChEMBL document CHEMBL4811256, “Synthesis and evaluation of multi-target-directed ligands with BACE-1 inhibitory and Nrf2 agonist activities as potential agents against Alzheimer's disease” (Eur J Med Chem, 2021)
